Key:
[1] = octanol/water partition, P=Coctanol/Cwater; cited from earlier work
[2] = Solubility of monomers, mixing 10% of the monomer with a variety of solvents; type: physicochemical; details: 10% by weight in solvent

Row | SMILES | log P [1] | Solubility in Butyl Acetate [2] | Solubility in Ethanol [2] | Solubility in Ethyl Acetate [2] | Solubility in Isopropanol [2] | Solubility in Styrene [2] | Solubility in Toluene [2] | Solubility in Water [2]
1 | C=CC(=O)O [acrylic acid] | about 0.4 |  |  |  |  |  |  | 
2 | C=CC(=O)NC(C)(C)CS(=O)(=O)O.CCCCCCCCCCCCN(C)C [Example 8, 2-acrylamido-2-methylpropanesulfonic acid/N,N-dimethyl-n-dodecylamine salt] |  | clear | clear | clear | clear | clear | clear | clear
3 | C=CC(=O)NC(C)(C)CS(=O)(=O)O [Example 7, 2-acrylamido-2-methylpropanesulfonic acid] |  | insoluble | insoluble | insoluble | not fully soluble | insoluble | insoluble | clear
4 | CCc1ccccc1 [ethylbenzene] | about 3.1 |  |  |  |  |  |  | 
5 | C=CC(=O)NC(C)(C)CS(=O)(=O)O.CCCCC(CC)CN [Example 9, 2-acrylamido-2-methylpropanesulfonic acid/2-ethylhexylamine salt] |  | trace oil | clear | clear | clear |  |  | clear
